What was measured:
[1] = molecular target: T1, Nicotinamide N-methyltransferase (Homo sapiens, UniProt P40261)
T1 sequence (P40261 whole entry): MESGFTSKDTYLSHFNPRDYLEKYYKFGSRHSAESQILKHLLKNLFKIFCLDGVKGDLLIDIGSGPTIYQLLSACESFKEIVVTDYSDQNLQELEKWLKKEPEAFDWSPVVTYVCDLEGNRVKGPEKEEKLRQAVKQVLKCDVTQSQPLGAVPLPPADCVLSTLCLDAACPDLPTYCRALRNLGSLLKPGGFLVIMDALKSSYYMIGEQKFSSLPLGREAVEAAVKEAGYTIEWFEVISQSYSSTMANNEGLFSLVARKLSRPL
Description: Inhibition of human NNMT measured after 20 mins by luminescence based methyltransferase assay

[2] = Plasma protein binding in human; assay type: ADME, cell-free; conditions: read-out: PPB
[3] = Tmax in C57BL6/N mouse at 50 mg/kg, po measured upto 24 hrs by LC-MS/MS analysis; assay type: ADME, organism-based; conditions: in vivo
[4] = Mutagenicity in Salmonella typhimurium by Ames test; assay type: toxicity; conditions: salmonella enterica subsp. enterica serovar typhimurium
[5] = Cmax in C57BL6/N mouse at 50 mg/kg, po measured upto 24 hrs by LC-MS/MS analysis; assay type: ADME, organism-based; design: dose 50 mg/kg, time < 24 hrs, route po; conditions: in vivo
[6] = Volume of distribution at steady state in C57BL6/N mouse; assay type: ADME; conditions: in vivo, read-out: Vdss
[7] = Microsomal stability in mouse liver microsomes assessed as compound remaining after 60 mins by LC-MS/MS analysis; assay type: ADME, Microsome; conditions: for remaining at 1 h: liver microsomes, read-out: Stability; for Stability: microsomes, 1 h
[8] = Half life in C57BL6/N mouse at 10 mg/kg, po measured upto 24 hrs by LC-MS/MS analysis; assay type: ADME, organism-based; conditions: in vivo
[9] = Plasma protein binding in mouse; assay type: ADME, cell-free; conditions: read-out: PPB
[10] = AUClast in C57BL6/N mouse at 50 mg/kg, po measured upto 24 hrs by LC-MS/MS analysis; assay type: ADME, organism-based; design: time < 24 hrs, dose 50 mg/kg, route po; conditions: in vivo; for AUC(0-t) at 24 h: C57BL6/N
[11] = Toxicity in C57BL6/N mouse assessed as adverse effect at 50 to 100 mg/kg, po qd measured after 2 weeks; assay type: organism-based; conditions: in vivo, 336 h, dose 50-100 mg/kg
[12] = molecular target: T1, Nicotinamide N-methyltransferase; assay: Inhibition of human NNMT in human K562 cells measured after 24 hrs by quantitative mass spectrometry; assay type: cell-based
[13] = Half life in C57BL6/N mouse at 50 mg/kg, po measured upto 24 hrs by LC-MS/MS analysis; assay type: ADME, organism-based; conditions: in vivo
CYP450 = CYP450 (Homo sapiens, UniProt P04798+P05177+P05181+P08684+P10632+P10635+P11509+P11712+P13584+P20813+P20815+P20853+P24462+P24903+P33260+P33261+P51589+P78329+P98187+Q02928+Q08477+Q16678+Q16696+Q5TCH4+Q6VVX0+Q7Z449+Q8TAV3+Q96SQ9+Q9HB55); assay: Inhibition of CYP450 (unknown origin); assay type: ADME, protein assay
P-gp = P-gp (Homo sapiens, UniProt P08183); assay: Substrate activity at P-gp (unknown origin) assessed as efflux ratio; conditions: not told
hERG = hERG (Homo sapiens, UniProt Q12809); assay: Inhibition of hERG; assay type: toxicity
[14] = Microsomal stability in human liver microsomes assessed as compound remaining after 60 mins by LC-MS/MS analysis; assay type: ADME, Microsome; conditions: for remaining at 1 h: liver microsomes, read-out: Stability
[15] = Aqueous solubility of compound at pH 7.4; assay type: physicochemical; conditions: aqueous medium
[16] = Clearance in C57BL6/N mouse at 1 mg/kg, iv measured upto 24 hrs by LC-MS/MS analysis; assay type: ADME, organism-based; conditions: in vivo
[17] = Dissociation constant, pKa of the compound; assay type: physicochemical
[18] = Oral bioavailability in C57BL6/N mouse at 50 mg/kg measured upto 24 hrs by LC-MS/MS analysis; assay type: ADME, organism-based; conditions: in vivo; for bioavailability: C57BL6/N
[19] = substrate: C[C@@H]1Cc2cc(C(N)=O)cnc2N1; conditions: Homo sapiens
Description: Uncompetitive inhibition of human NNMT assessed as Km of nicotinamide

[20] = substrate: C[C@@H]1Cc2cc(C(N)=O)cnc2N1; conditions: Homo sapiens; remark: listed apart in the source
Description: Uncompetitive inhibition of human NNMT assessed as Km of SAM

Sequence of hERG (Q12809 whole entry): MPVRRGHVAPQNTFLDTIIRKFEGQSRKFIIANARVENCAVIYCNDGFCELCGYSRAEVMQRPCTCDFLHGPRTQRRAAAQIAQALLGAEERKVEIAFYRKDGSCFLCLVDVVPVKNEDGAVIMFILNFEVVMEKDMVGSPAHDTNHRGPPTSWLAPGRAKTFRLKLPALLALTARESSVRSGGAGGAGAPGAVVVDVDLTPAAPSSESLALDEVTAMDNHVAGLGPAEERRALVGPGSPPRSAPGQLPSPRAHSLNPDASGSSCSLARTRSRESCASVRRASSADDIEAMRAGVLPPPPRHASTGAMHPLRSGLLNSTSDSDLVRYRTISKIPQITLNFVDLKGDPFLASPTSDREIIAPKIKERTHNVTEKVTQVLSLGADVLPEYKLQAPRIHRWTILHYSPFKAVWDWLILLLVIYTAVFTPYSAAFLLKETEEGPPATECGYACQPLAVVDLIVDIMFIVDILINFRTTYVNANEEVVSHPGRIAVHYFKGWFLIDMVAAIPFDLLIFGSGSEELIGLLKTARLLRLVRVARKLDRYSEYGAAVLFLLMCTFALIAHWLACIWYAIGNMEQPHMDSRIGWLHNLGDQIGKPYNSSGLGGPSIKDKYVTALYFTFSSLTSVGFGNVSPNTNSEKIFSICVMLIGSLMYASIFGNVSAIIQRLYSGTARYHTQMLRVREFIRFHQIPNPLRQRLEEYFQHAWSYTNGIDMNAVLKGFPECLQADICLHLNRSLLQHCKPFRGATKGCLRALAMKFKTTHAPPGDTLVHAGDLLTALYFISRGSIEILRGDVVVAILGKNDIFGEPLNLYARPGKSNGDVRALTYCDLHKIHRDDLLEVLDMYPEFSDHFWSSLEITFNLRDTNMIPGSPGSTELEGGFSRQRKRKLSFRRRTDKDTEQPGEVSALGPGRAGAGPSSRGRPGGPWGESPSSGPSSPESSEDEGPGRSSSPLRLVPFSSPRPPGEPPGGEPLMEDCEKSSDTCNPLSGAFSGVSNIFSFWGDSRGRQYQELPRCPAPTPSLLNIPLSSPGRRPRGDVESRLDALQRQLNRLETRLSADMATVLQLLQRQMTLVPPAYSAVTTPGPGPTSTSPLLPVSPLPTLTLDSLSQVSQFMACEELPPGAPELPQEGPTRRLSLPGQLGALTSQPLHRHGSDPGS
Sequence of P-gp (P08183 whole entry): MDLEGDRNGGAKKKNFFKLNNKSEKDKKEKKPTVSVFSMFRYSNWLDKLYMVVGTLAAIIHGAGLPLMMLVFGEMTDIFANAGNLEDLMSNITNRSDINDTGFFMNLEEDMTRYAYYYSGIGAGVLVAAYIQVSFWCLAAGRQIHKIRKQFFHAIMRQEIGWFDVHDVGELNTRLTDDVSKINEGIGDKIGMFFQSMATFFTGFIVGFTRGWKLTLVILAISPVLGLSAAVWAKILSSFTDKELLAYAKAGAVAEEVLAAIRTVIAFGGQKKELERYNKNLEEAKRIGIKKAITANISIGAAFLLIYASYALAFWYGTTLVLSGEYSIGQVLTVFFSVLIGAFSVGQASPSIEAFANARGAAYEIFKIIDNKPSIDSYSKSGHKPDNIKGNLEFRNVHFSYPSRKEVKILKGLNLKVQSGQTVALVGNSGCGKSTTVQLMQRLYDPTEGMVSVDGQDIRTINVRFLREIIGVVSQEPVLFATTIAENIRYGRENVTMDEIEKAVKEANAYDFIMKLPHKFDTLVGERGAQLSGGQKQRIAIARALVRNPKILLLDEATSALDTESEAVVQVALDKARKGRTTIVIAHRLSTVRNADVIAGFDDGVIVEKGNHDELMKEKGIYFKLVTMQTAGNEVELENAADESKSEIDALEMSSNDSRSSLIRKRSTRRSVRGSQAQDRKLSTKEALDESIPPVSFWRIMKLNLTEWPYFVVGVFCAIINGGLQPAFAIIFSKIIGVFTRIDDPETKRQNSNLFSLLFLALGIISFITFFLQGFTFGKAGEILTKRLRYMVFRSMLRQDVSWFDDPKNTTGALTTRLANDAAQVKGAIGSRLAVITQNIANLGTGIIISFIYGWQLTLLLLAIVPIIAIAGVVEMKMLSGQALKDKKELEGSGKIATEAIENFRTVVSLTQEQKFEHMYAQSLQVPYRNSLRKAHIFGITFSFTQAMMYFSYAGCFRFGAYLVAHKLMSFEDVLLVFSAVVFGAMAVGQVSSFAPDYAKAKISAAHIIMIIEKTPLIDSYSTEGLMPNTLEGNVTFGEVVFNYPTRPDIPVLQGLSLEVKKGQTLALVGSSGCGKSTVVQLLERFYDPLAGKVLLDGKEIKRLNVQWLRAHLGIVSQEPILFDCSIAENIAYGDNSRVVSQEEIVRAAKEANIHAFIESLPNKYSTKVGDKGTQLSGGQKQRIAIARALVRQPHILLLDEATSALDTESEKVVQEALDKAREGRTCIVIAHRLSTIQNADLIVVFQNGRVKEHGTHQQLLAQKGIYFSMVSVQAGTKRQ

CNc1ccncc1C(N)=O
IC50 [1]: > 10000 nM

NC(=O)c1cnc2c(c1)OCCN2
IC50 [1]: > 10000 nM

NC(=O)c1cnc2c(c1)CCCN2
IC50 [1]: 740 nM

NC(=O)c1cnc2[nH]ncc2c1
IC50 [1]: > 10000 nM

COc1ccc(C(N)=O)cn1
IC50 [1]: 1390 nM

CNc1ncc(C(N)=O)c(C)n1
IC50 [1]: > 10000 nM

C[C@@H]1Cc2cc(C(N)=O)cnc2N1
fraction unbound [2]: > 0.62 | Tmax [3]: 15 min | Activity [4]: Non-Toxic | Cmax [5]: 22500 ng/mL | Vd [6]: 0.877 L/kg | remaining at 1 h [7]: 93% | half-life [8]: 78.5 min | fraction unbound [9]: > 0.76 | AUClast ([10]; 24 h): 5115 ng·h/mL | Activity [11]: Non-Toxic | IC50 [12]: 38 nM | half-life [13]: 173 min | IC50 (CYP450): > 100000 nM | efflux ratio (P-gp): 0.79 | IC50 (hERG): > 30000 nM | remaining at 1 h [14]: 97% | solubility [15]: ≥ 50 µg/mL | IC50 [1]: 42 nM

CCOc1cc(C)c(C(N)=O)cn1
IC50 [1]: > 10000 nM

C[C@H]1Cc2cc(C(N)=O)cnc2N1
IC50 [1]: > 10000 nM

CNc1cc(C)c(C(N)=S)cn1
IC50 [1]: > 10000 nM

CNc1ncc(C(N)=O)s1
IC50 [1]: > 10000 nM

CNc1cc(C)c(C(N)=O)cn1
Cmax [5]: 38900 ng/mL | remaining at 1 h [7]: 85% | half-life [8]: 66.6 min | AUC(0-t) at 24 h [10]: 30700 ng·h/mL | IC50 [12]: 25 nM | clearance [16]: 62.8 mL/min/kg | half-life [13]: 107 min | remaining at 1 h [14]: 95% | IC50 [1]: 282 nM

CNc1cc(OC)c(C(N)=O)cn1
IC50 [1]: > 10000 nM

COc1ccccn1
pKa [17]: 3.28

CNc1ncc(C(N)=O)cn1
IC50 [1]: > 10000 nM

Cc1c(C(N)=O)c[n+]([O-])c2c1CCN2
IC50 [1]: 7050 nM

C[C@H]1Nc2ncc(C(N)=O)cc2[C@@H]1C
Stability [7]: Unstable | IC50 [12]: 114 nM | Stability ([14]; microsomes, 1 h): Unstable

CNc1cc(Cl)c(C(N)=O)cn1
IC50 [1]: 639 nM

CNc1ncc(C(N)=O)c(C)c1C
IC50 [1]: > 10000 nM

NC(=O)c1cnc2c(c1Cl)CCN2
Tmax [3]: 15 min | Cmax [5]: 5580 ng/mL | remaining at 1 h [7]: 40% | half-life [8]: 27 min | AUC(0-t) at 24 h [10]: 4330 ng·h/mL | bioavailability [18]: 90% | IC50 [12]: 79 nM | clearance [16]: 179 mL/min/kg | half-life [13]: 172 min | remaining at 1 h [14]: 57% | IC50 [1]: 92 nM

Cc1c(C(N)=O)cnc2c1CCN2
Tmax [3]: 15 min | Cmax [5]: 13500 ng/mL | remaining at 1 h [7]: 47% | half-life [8]: 22.2 min | AUC(0-t) at 24 h [10]: 9220 ng·h/mL | F ([18]; po, 50 mg/kg, 24 h): 191% | IC50 [12]: 23 nM | clearance [16]: 182 mL/min/kg | half-life [13]: 32.6 min | remaining at 1 h [14]: 85% | IC50 [1]: 102 nM

C[C@@H]1Cc2c(ncc(C(N)=O)c2Cl)N1
IC50 [1]: 48 nM

CNc1cc(C(F)(F)F)c(C(N)=O)cn1
IC50 [1]: > 10000 nM

NC(=O)c1cnc2[nH]ccc2c1Cl
IC50 [1]: > 10000 nM

Cc1c(C(N)=O)cnc2c1C[C@@H](C)N2
Tmax [3]: 20 min | Cmax [5]: 11200 ng/mL | Stability [7]: Unstable | AUC(0-t) at 24 h [10]: 12100 ng·h/mL | bioavailability [18]: 129% | IC50 [12]: 12 nM | clearance [16]: 90 mL/min/kg | remaining at 1 h [14]: 91% | IC50 [1]: 43 nM

NC(=O)c1ccc(N)nc1 [6-AMINONICOTINAMIDE]
IC50 [1]: 3620 nM

NC(=O)c1cnc2c(c1)CCN2
Tmax [3]: 15 min | Cmax [5]: 28700 ng/mL | remaining at 1 h [7]: 89% | half-life [8]: 23.4 min | AUC(0-t) at 24 h [10]: 29000 ng·h/mL | IC50 [12]: 142 nM | clearance [16]: 64.2 mL/min/kg | half-life [13]: 87.6 min | remaining at 1 h [14]: 100% | IC50 [1]: 175 nM

C[C@@H]1Cc2cc(C(N)=O)c[n+](C)c2N1
IC50 [1]: 6240 nM

C[C@@H]1Nc2ncc(C(N)=O)cc2[C@H]1C
IC50 [1]: > 10000 nM

B1: Nicotinamide N-methyltransferase (Homo sapiens), P40261 (protein)
chain: T1 sequence (P40261 whole entry)
Km [19]: 13.9 µM | Km [20]: 20.2 µM
